Among the data in patent publication US20260048047A1, “SMALL-MOLECULE ACTIVATORS OF MYCOBACTERIUM TUBERCULOSIS ADENYLYL CYCLASE” (priority 2022, published 2026) are EC50 values, retold here.

The assay has as its system M. tuberculosis. The experiment in a line: Extracellular activity against M. tuberculosis in cholesterol media (Alamar Blue reduction assay). In kind it is cell-based, Mycobacterium tuberculosis. To be noted: Mycobacterium tuberculosis, 240 h, 7H12-Cholesterol media, 10 days; read-out: Cholesterol broth: alamar blue--EC50. On the technique in general: Alamar Blue is a resazurin reagent that responds to reducing activity.

pEC50: −log10 of the molar value.

With `Cc1nonc1CC(=O)N1CCC(c2nc(-c3cccc(F)c3F)no2)CC1` [Compound 143, 1-(4-(3-(2,3-difluorophenyl)-1,2,4-oxadiazol-5-yl)piperidin-1-yl)-2-(4-methyl-1,2,5-oxadiazol-3-yl)ethan-1-one], the pEC50 is 5.92.
Regarding `Cc1nonc1CC(=O)N1CCC(c2nc(-c3cccc(F)c3)no2)CC1` [Compound 144, 1-(4-(3-(3-fluorophenyl)-1,2,4-oxadiazol-5-yl)piperidin-1-yl)-2-(4-methyl-1,2,5-oxadiazol-3-yl)ethan-1-one], the pEC50 was 6.23.
In the case of `Cc1nonc1CC(=O)N1CCC(n2nnc(-c3cccc(F)c3)n2)CC1` [Compound 145, 1-(4-(5-(3-fluorophenyl)-2H-tetrazol-2-yl)piperidin-1-yl)-2-(4-methyl-1,2,5-oxadiazol-3-yl)ethan-1-one], the pEC50 was 6.02.
With `Cc1nonc1CC(=O)N1CCC(c2nc(-c3ccccc3F)no2)CC1` [Compound 146, 1-(4-(3-(2-fluorophenyl)-1,2,4-oxadiazol-5-yl)piperidin-1-yl)-2-(4-methyl-1,2,5-oxadiazol-3-yl)ethan-1-one], the pEC50 is 5.87.
With `Cc1nonc1CC(=O)N1CCC(n2nnc(-c3ccccc3F)n2)CC1` [Compound 147, 1-(4-(5-(2-fluorophenyl)-2H-tetrazol-2-yl)piperidin-1-yl)-2-(4-methyl-1,2,5-oxadiazol-3-yl)ethan-1-one], the negative-log EC50 (pEC50) was 5.84.
`Cc1nonc1CC(=O)N1CCC(c2nc(-c3ncc(F)cn3)no2)CC1` [Compound 148, 1-(4-(3-(5-fluoropyrimidin-2-yl)-1,2,4-oxadiazol-5-yl)piperidin-1-yl)-2-(4-methyl-1,2,5-oxadiazol-3-yl)ethan-1-one]: the negative-log EC50 (pEC50) is less than 5.00.
For the compound `Cc1nonc1CC(=O)N1CCC(n2nnc(-c3ccc(C(N)=O)cc3)n2)CC1` [Compound 149, 4-(2-(1-(2-(4-methyl-1,2,5-oxadiazol-3-yl)acetyl)piperidin-4-yl)-2H-tetrazol-5-yl)benzamide], the pEC50 was less than 5.00.
As for `Cc1nonc1CC(=O)N1CCC(n2cc(C(=O)NCCO)nn2)CC1` [Compound 150, N-(2-hydroxyethyl)-1-(1-(2-(4-methyl-1,2,5-oxadiazol-3-yl)acetyl)piperidin-4-yl)-1H-1,2,3-triazole-4-carboxamide], the figure is less than 5.00; as for `Cc1nonc1CS(=O)(=O)N1CCC(c2nc(-c3ccc(F)cc3)no2)CC1` [Compound 151, 3-(4-fluorophenyl)-5-(1-(((4-methyl-1,2,5-oxadiazol-3-yl)methyl)sulfonyl)piperidin-4-yl)-1,2,4-oxadiazole], less than 5.00; as for `Cc1nonc1NC(=O)N1CCC(c2nc(-c3ccc(F)cc3)no2)CC1` [Compound 152, 4-(3-(4-fluorophenyl)-1,2,4-oxadiazol-5-yl)-N-(4-methyl-1,2,5-oxadiazol-3-yl)piperidine-1-carboxamide], 6.19.
`Cn1cnc(CC(=O)N2CCC(c3nc(-c4ccc(Cl)c(Cl)c4)no3)CC2)n1` [Compound 153, 1-(4-(3-(3,4-dichlorophenyl)-1,2,4-oxadiazol-5-yl)piperidin-1-yl)-2-(1-methyl-1H-1,2,4-triazol-3-yl)ethan-1-one]: the negative-log EC50 (pEC50) was less than 5.00.
As for `Cn1cnc(CC(=O)N2CCC(c3nc(-c4ccc(F)cc4)no3)CC2)n1` [Compound 154, 1-(4-(3-(4-fluorophenyl)-1,2,4-oxadiazol-5-yl)piperidin-1-yl)-2-(1-methyl-1H-1,2,4-triazol-3-yl)ethan-1-one], the pEC50 was less than 5.00.
On to `Cn1cnnc1CC(=O)N1CCC(c2nc(-c3ccc(F)cc3)no2)CC1` [Compound 155, 1-(4-(3-(4-fluorophenyl)-1,2,4-oxadiazol-5-yl)piperidin-1-yl)-2-(4-methyl-4H-1,2,4-triazol-3-yl)ethan-1-one], for which the negative logarithm of the EC50 (pEC50) was less than 5.00.
As to `Cn1cnnc1CC(=O)N1CCC(n2nnc(-c3ccc(F)cc3)n2)CC1` [Compound 156, 1-(4-(5-(4-fluorophenyl)-2H-tetrazol-2-yl)piperidin-1-yl)-2-(4-methyl-4H-1,2,4-triazol-3-yl)ethan-1-one], the negative logarithm of the EC50 (pEC50) is less than 5.00.
As for `Cn1ncnc1CC(=O)N1CCC(c2nc(C3CC4CCC3C4)no2)CC1` (stereo not drawn) [Compound 157, 1-(4-(3-(bicyclo[2.2.1]heptan-2-yl)-1,2,4-oxadiazol-5-yl)piperidin-1-yl)-2-(1-methyl-1H-1,2,4-triazol-5-yl)ethan-1-one], the figure is 5.73; as for `Cn1ncnc1CC(=O)N1CCC(c2nc([C@@H]3CC[C@@](C)(F)C3)no2)CC1` [Compound 158, 1-(4-(3-((1R,3R)-3-fluoro-3-methylcyclopentyl)-1,2,4-oxadiazol-5-yl)piperidin-1-yl)-2-(1-methyl-1H-1,2,4-triazol-5-yl)ethan-1-one], less than 5.00; as for `Cn1ncnc1CC(=O)N1CCC(c2nc([C@@H]3CC[C@](C)(F)C3)no2)CC1` [Compound 159, 1-(4-(3-((1R,3S)-3-fluoro-3-methylcyclopentyl)-1,2,4-oxadiazol-5-yl)piperidin-1-yl)-2-(1-methyl-1H-1,2,4-triazol-5-yl)ethan-1-one], less than 5.00.
As for `Cn1ncnc1CC(=O)N1CCC(c2nc(C3CCC(C)(F)CC3)no2)CC1` (stereo not drawn) [Compound 160, 1-(4-(3-(4-fluoro-4-methylcyclohexyl)-1,2,4-oxadiazol-5-yl)piperidin-1-yl)-2-(1-methyl-1H-1,2,4-triazol-5-yl)ethan-1-one], the negative-log EC50 (pEC50) was less than 5.00.
With `Cn1ncnc1CC(=O)N1CCC(c2noc(C34CC(C)(C3)C4)n2)CC1` [Compound 161, 2-(1-methyl-1H-1,2,4-triazol-5-yl)-1-(4-(5-(3-methylbicyclo[1.1.1]pentan-1-yl)-1,2,4-oxadiazol-3-yl)piperidin-1-yl)ethan-1-one], the negative logarithm of the EC50 (pEC50) was less than 5.00.
Regarding `Cn1ncnc1CC(=O)N1CCC(c2nc(C34CC(C)(C3)C4)no2)CC1` [Compound 162, 2-(1-methyl-1H-1,2,4-triazol-5-yl)-1-(4-(3-(3-methylbicyclo[1.1.1]pentan-1-yl)-1,2,4-oxadiazol-5-yl)piperidin-1-yl)ethan-1-one], the negative logarithm of the EC50 (pEC50) was less than 5.00.
Consider `Cn1ncnc1CC(=O)N1CCC(c2nc(-c3ccc(Cl)cc3Cl)no2)CC1` [Compound 163, 1-(4-(3-(2,4-dichlorophenyl)-1,2,4-oxadiazol-5-yl)piperidin-1-yl)-2-(1-methyl-1H-1,2,4-triazol-5-yl)ethan-1-one], for which the pEC50 was 6.70.
As for `Cn1ncnc1CC(=O)N1CCC(c2nc(-c3ccc(Cl)c(Cl)c3)no2)CC1` [Compound 164, 1-(4-(3-(3,4-dichlorophenyl)-1,2,4-oxadiazol-5-yl)piperidin-1-yl)-2-(1-methyl-1H-1,2,4-triazol-5-yl)ethan-1-one], the negative logarithm of the EC50 (pEC50) was 7.19.
Next, `Cn1ncnc1CC(=O)N1CCC(n2nnc(-c3ccc(Cl)c(Cl)c3)n2)CC1` [Compound 165, 1-(4-(5-(3,4-dichlorophenyl)-2H-tetrazol-2-yl)piperidin-1-yl)-2-(1-methyl-1H-1,2,4-triazol-5-yl)ethan-1-one]: 7.00; `Cn1ncnc1CC(=O)N1CCC(c2noc(-c3ccc(Cl)c(Cl)c3)n2)CC1` [Compound 166, 1-(4-(5-(3,4-dichlorophenyl)-1,2,4-oxadiazol-3-yl)piperidin-1-yl)-2-(1-methyl-1H-1,2,4-triazol-5-yl)ethan-1-one]: 6.15.

The term pEC50 denotes −log10 of the EC50, conventionally taken in molar units.
